Measured values reported in the supplement of paper PMC10307832.

Tests used:
Test in all cases: relative viability (nuclei count vs DMSO), 5 days (fraction); higher = more cells survive
[1] = compound: Cc1ccccc1C(C(=O)NC1CCCCC1)N(C(=O)Cn1ccnc1C)c1cccc(F)c1 [IDH-C35] + CC(C)C[C@H](NC(=O)[C@H](Cc1ccccc1)NC(=O)c1cnccn1)B(O)O [Bortezomib] (partner 0.002 µM)
How it was run: (§1)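 Values are medians from duplicate plates. Each reflects relative viability, defined as the nuclei count of treated wells over that of vehicle wells. Lung cancer cell lines in 1536-well plates were pin-tool dosed one day after seeding with one drug alone or with a fixed anchor-drug dose plus five library-drug doses (not always all listed) in √10 steps, then fixed, stained and imaged at 4× after 5 days.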

[2] = compound: CC1=C(C(=NN1)C)CC2=C(C3=C(S2)N(C(=O)N(C3=O)C)CC(C)C)C(=O)N4C[C@@H](CO4)O + Cc1nc(NC(=O)N2CCC[C@H]2C(N)=O)sc1-c1ccnc(C(C)(C)C(F)(F)F)c1 [Alpelisib] (partner 2 µM)
How it was run: as §1

[3] = compound: CC1=C(C(=NN1)C)CC2=C(C3=C(S2)N(C(=O)N(C3=O)C)CC(C)C)C(=O)N4C[C@@H](CO4)O
How it was run: (§2)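 Viability was defined as treated-well nuclei divided by vehicle-well nuclei, with the median taken over replicate plates. Cells from lung cancer lines sat overnight at 37 °C in 1536-well plates, received five √10-spaced library-drug doses by pinning on vehicle-anchored plates, and grew 5 days without medium change before one-step fixation, permeabilisation and Hoechst staining, 4× imaging and MetaXpress nuclear counts. Only plates with control CV under 25% and at least one doubling were kept.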

[4] = compound: Cc1ccccc1C(C(=O)NC1CCCCC1)N(C(=O)Cn1ccnc1C)c1cccc(F)c1 [IDH-C35]
How it was run: as §2

Row | Cell Line | relative viability ([1]; first compound 0.08 µM) | relative viability ([1]; first compound 0.253 µM) | relative viability ([1]; first compound 0.8 µM) | relative viability ([1]; first compound 2.53 µM) | relative viability ([1]; first compound 8 µM) | relative viability ([2]; first compound 0.0025 µM) | relative viability ([2]; first compound 0.007906 µM) | relative viability ([2]; first compound 0.025 µM) | relative viability ([2]; first compound 0.07906 µM) | relative viability ([2]; first compound 0.25 µM) | relative viability ([3]; 0.0025 µM) | relative viability ([3]; 0.007906 µM) | relative viability ([3]; 0.025 µM) | relative viability ([3]; 0.07906 µM) | relative viability ([3]; 0.25 µM) | relative viability ([4]; 0.08 µM) | relative viability ([4]; 0.253 µM) | relative viability ([4]; 0.8 µM) | relative viability ([4]; 2.53 µM) | relative viability ([4]; 8 µM)
1 | NCI-H1975 | 0.383 | 0.376 | 0.421 | 0.354 | 0.315 | 0.668 | 0.538 | 0.723 | 0.719 | 0.745 | 1.07 | 0.997 | 0.873 | 0.988 | 1.02 | 0.968 | 1.01 | 0.986 | 1.05 | 0.966
2 | CAL-12T | 0.975 | 0.863 | 1.03 | 1.05 | 0.85 | 1.27 | 1.3 | 1.03 | 1.06 | 1.58 | 1.03 | 1.03 | 0.958 | 1.12 | 1.13 | 0.982 | 1.04 | 0.982 | 1.05 | 0.979
3 | NCI-H1623 |  |  |  |  |  |  |  |  |  |  | 1.02 | 0.899 | 1.01 | 1.01 | 0.955 | 0.969 | 0.975 | 0.95 | 1 | 1.04
4 | HCC-44 | 0.899 | 0.934 | 0.88 | 0.86 | 0.843 | 0.817 | 0.851 | 0.798 | 0.795 | 0.777 | 1.01 | 1.01 | 0.992 | 0.931 | 1.05 | 0.949 | 0.947 | 0.971 | 0.998 | 0.942
5 | EKVX | 1.18 | 0.995 | 0.995 | 1.04 | 0.993 | 0.906 | 1.07 | 0.835 | 0.923 | 0.734 | 1.08 | 1.03 | 0.952 | 0.883 | 0.989 | 0.991 | 0.991 | 0.922 | 0.861 | 0.997
6 | NCI-H1944 |  |  |  |  |  | 0.858 | 0.858 | 0.921 | 0.847 | 0.761 | 1.04 | 1.1 | 0.982 | 0.933 | 0.944 | 1.01 | 1.07 | 0.927 | 0.941 | 0.976
7 | NCI-H358 |  |  |  |  |  | 0.893 | 0.906 | 0.78 | 0.903 | 1.04 | 1.09 | 0.992 | 1.01 | 1.02 | 0.983 | 0.942 | 0.984 | 0.807 | 0.942 | 0.919
8 | NCI-H1793 |  |  |  |  |  | 0.724 | 0.826 | 0.546 | 0.554 | 0.742 | 0.94 | 0.995 | 1 | 0.886 | 0.686 | 0.961 | 0.874 | 0.844 | 0.859 | 0.994
9 | ChaGo-K-1 | 0.956 | 0.942 | 1.09 | 0.939 | 1.03 |  |  |  |  |  | 0.989 | 0.98 | 0.901 | 0.969 | 1.06 | 0.994 | 0.941 | 0.993 | 0.966 | 1.02
10 | NCI-H522 |  |  |  |  |  |  |  |  |  |  | 0.933 | 1.12 | 0.735 | 0.64 | 0.653 | 1.02 | 1.07 | 0.931 | 0.884 | 0.99
11 | NCI-H1650 | 0.227 | 0.205 | 0.229 | 0.213 | 0.213 |  |  |  |  |  | 0.986 | 1.07 | 1.11 | 1.14 | 1.21 | 1.01 | 0.986 | 0.928 | 0.923 | 0.839
12 | NCI-H1648 |  |  |  |  |  |  |  |  |  |  | 1.01 | 0.971 | 0.992 | 0.624 | 0.678 | 0.756 | 0.758 | 0.953 | 0.761 | 0.942
13 | SK-MES-1 |  |  |  |  |  | 0.964 | 0.997 | 1.04 | 0.878 | 1.01 | 1.03 | 1.07 | 1.02 | 1.07 | 1.06 | 0.983 | 0.984 | 0.985 | 1.02 | 0.986
14 | NCI-H2342 |  |  |  |  |  |  |  |  |  |  | 1.06 | 0.935 | 1.03 | 0.975 | 0.886 | 1.02 | 0.957 | 0.901 | 0.908 | 0.891
15 | SW 900 |  |  |  |  |  |  |  |  |  |  | 1.06 | 1.16 | 0.835 | 0.888 | 0.97 | 0.871 | 0.849 | 0.768 | 0.834 | 0.897
16 | LK-2 |  |  |  |  |  | 1.06 | 1.03 | 1.09 | 1.05 | 1.08 | 1 | 1.03 | 0.818 | 0.804 | 0.898 | 0.881 | 0.995 | 0.996 | 0.998 | 0.943
17 | NCI-H1395 |  |  |  |  |  | 1.04 | 0.898 | 1.06 | 0.983 | 1.01 | 0.962 | 0.841 | 0.713 | 0.795 | 0.719 | 0.942 | 0.866 | 0.929 | 0.877 | 0.882
18 | A549 |  |  |  |  |  | 0.838 | 0.96 | 0.744 | 0.758 | 0.961 | 1.04 | 1.11 | 0.931 | 0.953 | 1.04 | 1 | 0.966 | 0.956 | 0.918 | 0.974
19 | NCI-H2170 |  |  |  |  |  | 0.918 | 0.868 | 0.705 | 0.819 | 0.786 | 0.973 | 1.02 | 0.966 | 0.906 | 0.965 | 0.971 | 0.948 | 1.02 | 0.867 | 0.983
